Data: the supplement of paper PMC10627819

How the values were obtained:
[1] = test system: S. pneumoniae D39V; assay: fitness (endpoint OD595 vs no drug) (fraction); higher = more growth
How it was run: (§1)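 At 37 °C, bacteria in TSB, LB Lennox or CY were grown in 384-well plates from a starting OD595 of 0.01. OD595 was measured every 30 min for 14 h, with the first reading used as background. Fitness is the optical density at the switch to stationary phase as a fraction of the robust mean of no-drug control wells, capped at 1.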

[2] = test system: B. subtilis 168; assay: as above
How it was run: as §1

[3] = test system: S. aureus Newman; assay: Bliss interaction score (quartile over a dose matrix) (fitness difference); higher = more antagonism (negative = synergy)
How it was run: (§2)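 Fitness was defined as normalised growth: OD595 at the start of stationary phase divided by the plate's robust no-drug mean and capped at 1. Single-drug fitness was inferred from combination measurements. The Bliss score is observed fitness minus the product of the single-drug values, summarised by quartiles across technical, biological and donor/recipient replicates.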

[4] = test system: S. pneumoniae D39V; assay: as above
How it was run: as §2

[5] = test system: B. subtilis 168; assay: as above
How it was run: as §2

[6] = test system: S. aureus DSM 20231; assay: as above
How it was run: as §2
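Throughout, for Bliss interaction score (quartile over a dose matrix): first quartile when negative (synergy) and third quartile when positive (antagonism).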
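Throughout, for fitness (endpoint OD595 vs no drug): OD595 on entry to stationary phase over no-drug wells; at most 1.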

O=C(O)c1cn(C2CC2)c2cc(N3CCNCC3)c(F)cc2c1=O [Ciprofloxacin] + C[C@H]1COc2c(N3CCN(C)CC3)c(F)cc3c(=O)c(C(=O)O)cn1c23 [Levofloxacin]
Details	fitness
[1], first compound 0.125 µg/mL, partner 0.1725 µg/mL	0.884
[1], first compound 0.125 µg/mL, partner 0.2 µg/mL	0.883
[1], first compound 0.125 µg/mL, partner 0.345 µg/mL	0.794
[1], first compound 0.125 µg/mL, partner 0.4 µg/mL	0.735
[1], first compound 0.125 µg/mL, partner 0.69 µg/mL	0.498
[1], first compound 0.125 µg/mL, partner 0.8 µg/mL	0.201
[1], first compound 0.25 µg/mL, partner 0.1725 µg/mL	0.83
[1], first compound 0.25 µg/mL, partner 0.345 µg/mL	0.723
[1], first compound 0.25 µg/mL, partner 0.69 µg/mL	0.445
[1], first compound 0.5 µg/mL, partner 0.1725 µg/mL	0.592
[1], first compound 0.5 µg/mL, partner 0.345 µg/mL	0.462
[1], first compound 0.5 µg/mL, partner 0.69 µg/mL	0.282
[1], first compound 0.5 µg/mL, partner 0.8 µg/mL	0.145
[2], first compound 0.0098 µg/mL, partner 0.002 µg/mL	0.855
[2], first compound 0.0098 µg/mL, partner 0.0039 µg/mL	0.873
[2], first compound 0.0098 µg/mL, partner 0.0312 µg/mL	0.0377
[2], first compound 0.0098 µg/mL, partner 0.0625 µg/mL	0.0424
[2], first compound 0.0098 µg/mL, partner 0.125 µg/mL	0.0385
[2], first compound 0.0195 µg/mL, partner 0.002 µg/mL	0.727
[2], first compound 0.0195 µg/mL, partner 0.0039 µg/mL	0.722
[2], first compound 0.0195 µg/mL, partner 0.0312 µg/mL	0.0376
[2], first compound 0.0195 µg/mL, partner 0.0625 µg/mL	0.0489
[2], first compound 0.0195 µg/mL, partner 0.125 µg/mL	0.0429
[2], first compound 0.039 µg/mL, partner 0.002 µg/mL	0.123
[2], first compound 0.039 µg/mL, partner 0.0039 µg/mL	0.145
[2], first compound 0.039 µg/mL, partner 0.0312 µg/mL	0.0451
[2], first compound 0.039 µg/mL, partner 0.0625 µg/mL	0.0495
[2], first compound 0.039 µg/mL, partner 0.125 µg/mL	0.0401

one replicate
Details	fitness
[1], first compound 0.25 µg/mL, partner 0.2 µg/mL	0.752
[1], first compound 0.25 µg/mL, partner 0.4 µg/mL	0.559
[1], first compound 0.25 µg/mL, partner 0.8 µg/mL	0.124
[2], first compound 0.0098 µg/mL, partner 0.001 µg/mL	0.863
[2], first compound 0.0098 µg/mL, partner 0.0078 µg/mL	0.934
[2], first compound 0.0195 µg/mL, partner 0.001 µg/mL	0.829
[2], first compound 0.0195 µg/mL, partner 0.0078 µg/mL	0.683
[2], first compound 0.039 µg/mL, partner 0.001 µg/mL	0.291
[2], first compound 0.039 µg/mL, partner 0.0078 µg/mL	0.0887

Details	Bliss interaction score
[3]	-0.194
[4]	-0.166
[5]	-0.0411
[6]	-0.147

CO/N=C(\C(=O)N[C@@H]1C(=O)N2C(C(=O)O)=C(COC(C)=O)CS[C@H]12)c1csc(N)n1 [Cefotaxime] + CN(C)C(=O)C(CCN1CCC(O)(c2ccc(Cl)cc2)CC1)(c1ccccc1)c1ccccc1 [Loperamide]
Details	fitness
[1], first compound 0.0018 µg/mL, partner 17.14 µg/mL	0.977
[1], first compound 0.0018 µg/mL, partner 20 µg/mL	0.988
[1], first compound 0.0018 µg/mL, partner 34.28 µg/mL	0.984
[1], first compound 0.0018 µg/mL, partner 40 µg/mL	≥ 1
[1], first compound 0.0018 µg/mL, partner 80 µg/mL	≥ 1
[1], first compound 0.0035 µg/mL, partner 17.14 µg/mL	0.981
[1], first compound 0.0035 µg/mL, partner 20 µg/mL	0.984
[1], first compound 0.0035 µg/mL, partner 34.28 µg/mL	0.935
[1], first compound 0.0035 µg/mL, partner 40 µg/mL	0.977
[1], first compound 0.0035 µg/mL, partner 80 µg/mL	0.956
[1], first compound 0.007 µg/mL, partner 20 µg/mL	0.898
[1], first compound 0.007 µg/mL, partner 40 µg/mL	0.842
[1], first compound 0.007 µg/mL, partner 80 µg/mL	0.262
[2], first compound 0.5 µg/mL, partner 25 µg/mL	0.0401
[2], first compound 0.5 µg/mL, partner 50 µg/mL	0.0447
[2], first compound 0.5 µg/mL, partner 100 µg/mL	0.0339
[2], first compound 1 µg/mL, partner 25 µg/mL	0.0257
[2], first compound 1 µg/mL, partner 50 µg/mL	0.0406
[2], first compound 1 µg/mL, partner 100 µg/mL	0.032
[2], first compound 2 µg/mL, partner 25 µg/mL	0.0689
[2], first compound 2 µg/mL, partner 50 µg/mL	0.0803
[2], first compound 2 µg/mL, partner 100 µg/mL	0.0709

fitness, one replicate
Details	first compound 0.0018 µg/mL	first compound 0.0035 µg/mL	first compound 0.007 µg/mL	first compound 0.00775 µg/mL	first compound 0.0155 µg/mL	first compound 0.031 µg/mL
[1], partner 68.57 µg/mL	≥ 1	0.999	0.761	–	–	–
[2], partner 25 µg/mL	–	–	–	0.406	0.0668	0.0762
[2], partner 50 µg/mL	–	–	–	0.0446	0.0311	0.0295
[2], partner 100 µg/mL	–	–	–	0.0412	0.0228	0.0243

Details	Bliss interaction score
[3]	0.0269
[4]	-0.0572
[5]	-0.0982
[6]	-0.0602

C[C@H]1c2cccc(O)c2C(=O)C2=C(O)[C@]3(O)C(=O)C(C(N)=O)=C(O)[C@@H](N(C)C)[C@@H]3[C@@H](O)[C@@H]21 [Doxycycline] + CN[C@@H]1[C@H](O)[C@H](NC)[C@H]2O[C@@]3(O)C(=O)C[C@@H](C)O[C@H]3O[C@@H]2[C@H]1O [Spectinomycin]
fitness, [1], one replicate
Details	first compound 0.003875 µg/mL	first compound 0.00775 µg/mL	first compound 0.031 µg/mL	first compound 0.062 µg/mL
partner 4 µg/mL	0.971	0.908	–	–
partner 8 µg/mL	0.949	0.925	–	–
partner 16 µg/mL	0.804	0.834	0.768	0.673

fitness
Details	partner 2 µg/mL	partner 4 µg/mL	partner 8 µg/mL	partner 16 µg/mL
[1], first compound 0.0155 µg/mL	–	0.91	0.869	0.805
[1], first compound 0.031 µg/mL	–	0.879	0.822	–
[1], first compound 0.062 µg/mL	–	0.783	0.758	–
[2], first compound 0.02 µg/mL	0.909	0.881	0.835	–
[2], first compound 0.04 µg/mL	0.824	0.828	0.712	–
[2], first compound 0.08 µg/mL	0.546	–	0.402	–

Details	Bliss interaction score
[3]	-0.0405
[4]	-0.0375
[5]	-0.0339
[6]	-0.0389
